Test systems include SW-620; SK-MEL-5; MOLT-4; LXFL 529; HOP-18; KM-20L2; OVCAR-8; SK-MEL-2; NCI-H522; HL-60; UO-31; SK-OV-3; HOP-92; SK-MEL-28; NCI-H226; SR; T47D; DU-145; MDA-MB-231; NCI/ADR-RES.
What all share (test): inhibition of tumour cell growth, NCI panel, 48 h

Here are results for 15 compounds from ChEMBL document CHEMBL1201862, “PubChem BioAssay data set” (2004).

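Five concentrations, 48 hours, 96-well plates. GI50: concentration for 50% inhibition of growth.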 The source made the active and inactive calls. Rule as the data show it: active = GI50 up to about 1.1 µM and inactive = higher.

Take `C/C=C/CC(C)[C@@H](O)[C@H](NC)C(=O)O` (stereo partly drawn): the GI50 in the assay with SW-620, in the assay with SK-MEL-5, in the assay with MOLT-4, with LXFL 529, with HOP-18 and in the assay with KM-20L2 was > 100 µM (inactive) in each case. Also, the GI50 with OVCAR-8, in the assay on SK-MEL-2, in the assay on NCI-H522, in the assay on HL-60, in the assay with UO-31 and in the assay with SK-OV-3 was > 100 µM (inactive) each time. Moreover, the GI50 in the assay with HOP-92 and in the assay on SK-MEL-28 was > 100 µM (inactive) each time.

In the case of `COc1ccc(OC)c2c(=S)c3ccccc3[nH]c12`, the GI50 with SW-620 was > 75.3 µM (inactive); in the assay with SK-MEL-5, 22.2 µM (inactive); in the assay with MOLT-4, 39.4 µM (inactive); with NCI-H226, > 21.5 µM (inactive); in the assay with LXFL 529 it was 56 µM (inactive); in the assay with KM-20L2, > 100 µM (inactive). Moreover, the GI50 in the assay on SR was 49.5 µM (inactive); in the assay with OVCAR-8, > 73.5 µM (inactive); in the assay with SK-MEL-2, > 100 µM (inactive); with NCI-H522 it was 49.1 µM (inactive); in the assay with T47D, > 100 µM (inactive); in the assay with HL-60 it was 25.3 µM (inactive). For the same compound, the GI50 is 39.4 µM (inactive) in the assay on UO-31; > 100 µM (inactive) in the assay on DU-145; > 100 µM (inactive) in the assay with SK-OV-3; > 100 µM (inactive) with MDA-MB-231; > 100 µM (inactive) with NCI/ADR-RES; > 100 µM (inactive) in the assay with HOP-92. Also, the GI50 in the assay with SK-MEL-28 is > 100 µM (inactive).

Consider `O=C(/C=C\c1ccc(/C=C/C(=O)Nc2cccc(C3=NCCCN3)c2)cc1)Nc1cccc(C2=NCCCN2)c1`, for which the GI50 with SW-620 was 25.4 µM (inactive); in the assay with SK-MEL-5, 30.8 µM (inactive); in the assay on MOLT-4, > 100 µM (inactive); in the assay on HOP-18, > 100 µM (inactive); in the assay with KM-20L2 it was > 56.4 µM (inactive); in the assay on OVCAR-8 it was > 100 µM (inactive). The GI50 in the assay with SK-MEL-2 was > 62.8 µM (inactive); with NCI-H522 it was 42.8 µM (inactive); with HL-60, > 100 µM (inactive); with UO-31, > 100 µM (inactive); in the assay on SK-OV-3, > 100 µM (inactive); in the assay with NCI/ADR-RES, > 100 µM (inactive). For the same compound, the GI50 in the assay on HOP-92 and in the assay on SK-MEL-28 was > 100 µM (inactive) in each case.

As to `Sc1nnc(COc2ccc(Cl)cc2Cl)[nH]1`, the GI50 in the assay with SW-620, in the assay with SK-MEL-5, in the assay on MOLT-4, with NCI-H226, in the assay with LXFL 529 and in the assay on KM-20L2 was > 100 µM (inactive) each time. Also, the GI50 was > 100 µM (inactive) in the assay on SR; > 100 µM (inactive) in the assay with OVCAR-8; > 100 µM (inactive) in the assay on SK-MEL-2; 26.4 µM (inactive) in the assay with HL-60; > 100 µM (inactive) in the assay with UO-31; > 100 µM (inactive) in the assay with HOP-92. The GI50 with SK-MEL-28 was > 100 µM (inactive).

In the case of `C#CC1(O)CC(c2ccccc2)N(C)C(c2ccccc2)C1` (stereo not drawn), the GI50 in the assay on SW-620, with SK-MEL-5, with MOLT-4, in the assay with NCI-H226, in the assay with LXFL 529 and with KM-20L2 was > 100 µM (inactive) each time. Also, the GI50 with OVCAR-8 was > 100 µM (inactive); with SK-MEL-2, > 100 µM (inactive); in the assay with NCI-H522, > 100 µM (inactive); in the assay with HL-60, > 100 µM (inactive); in the assay with UO-31 it was 67.1 µM (inactive); in the assay with SK-OV-3, > 100 µM (inactive). Further, the GI50 with HOP-92 and in the assay on SK-MEL-28 was > 100 µM (inactive) in each case.

`Cc1cc2c(cc1C)[n+]([O-])c(C(=O)/C=C/c1ccccc1Cl)c(C)[n+]2[O-]`: the GI50 in the assay with SW-620 is 35.1 µM (inactive); with SK-MEL-5, 24.4 µM (inactive); in the assay with MOLT-4, 39.5 µM (inactive); with NCI-H226, > 100 µM (inactive); in the assay with LXFL 529 it was 18.2 µM (inactive); in the assay on HOP-18, 29.3 µM (inactive). The GI50 in the assay on KM-20L2 is 35.2 µM (inactive); with OVCAR-8, 26.1 µM (inactive); with SK-MEL-2 it was 27.5 µM (inactive); in the assay with NCI-H522, 12.7 µM (inactive); in the assay with HL-60, 29.9 µM (inactive); in the assay on UO-31, 18 µM (inactive). In addition, the figures for the GI50 in the assay on SK-OV-3 and in the assay on SK-MEL-28 were 36 µM (inactive) and 26.9 µM (inactive), respectively.

Take `O=C(N/C(=C\c1ccc([N+](=O)[O-])cc1)c1nc2ccccc2[nH]1)c1ccccc1`: the GI50 was > 100 µM (inactive) in the assay on SW-620; 86.9 µM (inactive) in the assay on SK-MEL-5; > 100 µM (inactive) in the assay with MOLT-4; 39.4 µM (inactive) in the assay on LXFL 529; > 100 µM (inactive) in the assay on HOP-18; > 100 µM (inactive) in the assay on KM-20L2. Besides, the GI50 in the assay with OVCAR-8 is > 100 µM (inactive); with SK-MEL-2, > 100 µM (inactive); in the assay on NCI-H522, 64.7 µM (inactive); in the assay on HL-60, 70.6 µM (inactive); with UO-31, 21.9 µM (inactive); with HOP-92 it was 45.6 µM (inactive). Besides, the GI50 with SK-MEL-28 was > 100 µM (inactive).

Regarding `O=S1(=O)OCCOS(=O)(=O)C1Br`, the GI50 is > 100 µM (inactive) with SW-620; > 100 µM (inactive) with SK-MEL-5; > 100 µM (inactive) in the assay on MOLT-4; < 0.01 µM (active) in the assay with NCI-H226; > 100 µM (inactive) in the assay with LXFL 529; > 100 µM (inactive) with SR. For the same compound, the GI50 is > 100 µM (inactive) in the assay on OVCAR-8; > 100 µM (inactive) in the assay on SK-MEL-2; > 100 µM (inactive) with NCI-H522; > 100 µM (inactive) with HL-60; 39.1 µM (inactive) in the assay with UO-31; > 100 µM (inactive) in the assay on SK-OV-3. Besides, the GI50 in the assay on HOP-92 and with SK-MEL-28 was > 100 µM (inactive) each time.

As to `COc1ccc(OC)c(/C=C(/C#N)c2ccccc2)c1`, the GI50 with SW-620 is 6.46 µM (inactive); in the assay on SK-MEL-5, 13.2 µM (inactive); in the assay with MOLT-4, 12.9 µM (inactive); with NCI-H226, 26.9 µM (inactive); in the assay on LXFL 529, 34.3 µM (inactive); in the assay with HOP-18 it was > 100 µM (inactive). Also, the GI50 in the assay with KM-20L2 was 16.6 µM (inactive); in the assay on OVCAR-8, 37.2 µM (inactive); in the assay on SK-MEL-2 it was 5.82 µM (inactive); in the assay with NCI-H522, 14 µM (inactive); with HL-60 it was 3.95 µM (inactive); with SK-OV-3, 50 µM (inactive). The GI50 in the assay with HOP-92 was 17.7 µM (inactive); in the assay on SK-MEL-28 it was 23.4 µM (inactive).

With `OC(c1ccccc1)C1CC2C=CC1C2` (stereo not drawn), the GI50 with SW-620, in the assay on SK-MEL-5, in the assay on MOLT-4, with LXFL 529, in the assay on OVCAR-8 and in the assay with SK-MEL-2 was > 100 µM (inactive) in each case. In addition, the GI50 in the assay on NCI-H522, in the assay on HL-60, in the assay on UO-31, in the assay on SK-OV-3, in the assay with HOP-92 and in the assay with SK-MEL-28 was > 100 µM (inactive) throughout.

`CN1C(=O)CCC1(O)C1C=CC=CC1` (stereo not drawn): the GI50 in the assay with SW-620, in the assay with SK-MEL-5, with MOLT-4, in the assay with NCI-H226, in the assay on LXFL 529 and in the assay with KM-20L2 was > 100 µM (inactive) throughout. Also, the GI50 in the assay on SR, in the assay on OVCAR-8, in the assay on NCI-H522, in the assay on HL-60, in the assay on UO-31 and in the assay with SK-OV-3 was > 100 µM (inactive) in each case. In addition, in the assay on SK-MEL-28, the GI50 was > 100 µM (inactive).

For the compound `N=C(N)SCCc1cn2ccccc2n1`, the GI50 with SW-620 is > 100 µM (inactive); in the assay on SK-MEL-5, 6.92 µM (inactive); in the assay with MOLT-4 it was > 100 µM (inactive); in the assay with NCI-H226, > 100 µM (inactive); in the assay with HOP-18, > 100 µM (inactive); in the assay with SR it was > 100 µM (inactive). Besides, the GI50 with OVCAR-8, in the assay on SK-MEL-2, in the assay on NCI-H522, with HL-60, in the assay with UO-31 and in the assay with SK-MEL-28 was > 100 µM (inactive) throughout.

In the case of `COc1cc2c(cc1OC)C(N(C)C)C(c1ccccc1)=C2Cl` (stereo not drawn), the GI50 in the assay with SW-620 was 16.2 µM (inactive); with MOLT-4, 12.5 µM (inactive); with NCI-H226, 21.9 µM (inactive); with HOP-18 it was 28.5 µM (inactive); with KM-20L2, 25 µM (inactive); with SR, 4.54 µM (inactive). In addition, the GI50 in the assay with OVCAR-8 is 18.9 µM (inactive); in the assay with SK-MEL-2, 18.7 µM (inactive); with NCI-H522 it was 10.1 µM (inactive); in the assay on HL-60 it was 16.1 µM (inactive); in the assay with UO-31 it was 16.9 µM (inactive); in the assay on SK-OV-3, 22 µM (inactive). In addition, the GI50 in the assay with HOP-92 is 17.9 µM (inactive); in the assay on SK-MEL-28, 18.7 µM (inactive).

On to `COC(=O)CCC1(NS(=O)(=O)c2ccc(C)cc2)CCC(C(C)(C)C)CC1` (stereo not drawn), for which the GI50 in the assay on SW-620 is 16.7 µM (inactive); with SK-MEL-5, 5.62 µM (inactive); in the assay with MOLT-4 it was 6.15 µM (inactive); with LXFL 529, 15 µM (inactive); with OVCAR-8, 14.5 µM (inactive); in the assay on SK-MEL-2, 17.3 µM (inactive). Further, the GI50 in the assay on NCI-H522 is 5.16 µM (inactive); in the assay with HL-60 it was 3 µM (inactive); in the assay with UO-31 it was 3.3 µM (inactive); in the assay on SK-OV-3, 40.6 µM (inactive); in the assay on HOP-92, 7.06 µM (inactive); in the assay with SK-MEL-28, 11.6 µM (inactive).

In the case of `COc1cc(CNc2ccc(C(C)C)cc2)cc(OC)c1OC`, the GI50 in the assay with SK-MEL-5 is 14.7 µM (inactive); with MOLT-4, 22.4 µM (inactive); in the assay with LXFL 529, 18.9 µM (inactive); with HOP-18, 34.1 µM (inactive); in the assay on KM-20L2, 16.8 µM (inactive); in the assay with OVCAR-8, 28 µM (inactive). Moreover, the GI50 with SK-MEL-2 is 13 µM (inactive); in the assay on UO-31, 20.2 µM (inactive); with SK-OV-3, 17.6 µM (inactive); in the assay with HOP-92, 20.3 µM (inactive); in the assay on SK-MEL-28 it was 27 µM (inactive).
